Reference: EP0643699B1, “6-(2-HYDROXYETHYLAMINOALKYL)-5,11-DIOXO-5,6-DIHYDRO-11H- INDENO[1,2-C]ISOQUINOLINES AND THEIR USE AS ANTINEOPLASTIC AGENTS” (priority 1991, dated 1993)
Like-named read-outs stand apart in the source and are kept apart here. Marks after values point to notes of the source that are not given here.

Tests used:
Yoshida ascites cells = test: Cytotoxicity: incorporation of [3H]thymidine and [14C]uridine into trichloroacetic acid-insoluble fraction of cells; type: cell-based, Wistar rats
Source text: The degree of influence on the incorporation of [^3H]thymidine and [^14C]uridine into the fraction of Yoshida ascites cells insoluble in trichloroacetic acid serves as the measure of cytotoxicity.

Sa37 sarcoma = test: Antitumour activity in S37 ascites sarcoma bearing mice (tumour weight, total ascitocrit, survival); type: in vivo, mice H; details: for mean value of the tumour weight in comparison with the untreated control group / mean value of tumour cell fraction in ascites fluid (total ascitocrit) in comparison with the untreated control group: eight daily doses; for Survival time (T/C, %) / Total ascitocrit (T/C, %) / Tumour weight (T/C, %): administered in four days
Source text: (§1) The antineoplastic activity of the compounds of the invention has been investigated testing the compounds of the chemical group "in vivo" against experimental rodent tumors such as the solid form of Ehrlich tumour (STE, originally mammary adenocarcinoma), tumor HK (also transplantable originally mammary adenocarcinoma), Krebs' ascites tumour (Kr2), S37 ascites sarcoma, Nemeth-Keller lymphoma (NK), all maintained in mice H, Gardner lymphosarcoma (LsG, maintained in mice C3H), P388 and/or L1210 leukemia (maintained in DBA2 mice), B16 metastasizing melanocarcinoma (maintained in C57B1/6 mice) and Yoshida ascites reticulosarcoma (Y, maintained in Wistar rats) in experiments according to Jelinek, V. [Neoplasma 12, 469 (1965); ibid 7, 146 (1960)] and in "in vitro" experiments using radioactive precursors of nucleic acids and proteins according to Miko, M. et al. [Cancer Res 39, 4242 (1979); Neoplasma 26, 449 (1979); ibid 16, 161 (1969)] with minor modifications [Mattern, J.: Studies on the Drug Sensitivity of Short Term Cultured Tumour Cell Suspensions. In "Human Tumours in Short Term Culture" (Dendy, P.P. ed.), p.301, Academic Press 1976]. The Cox's proportional-hazards model was used for survival evaluation and optimal dose calculation according to Carter, V.H. et al. [cf Cancer Res. 42, 2963 (1982)].
Eighty female mice H weighing approximately 20 g were divided into four groups: one control group and three experimental groups of 20 animal each. A lethal dose of the Sa37 sarcoma ascitic fluid was implanted intraperitoneally to all the animals. The animals of test groups were treated using the compound suspended in water. The suspension contained the substance in such a concentration that dose 0.6, 0.4 and/or 0.2ml of the suspension p.o. was equal to dose 240, 160 and/or 80 mg/kg p.o., respectively. The drug was administered to the experimental animals once, a day after tumour transplantation. On the tenth day after the tumour transplantation, half of the animals in each group were killed by ether anaesthesia, ascites were emptied after laparotomia and the tumour weight was assessed in all animals from the weight difference before and after laparotomia and ascites removing. In ascites fluid the volume of tumour cell fraction was determined. The remaining animals were left to monitor the time of death and survival time was followed. […] It was also observed that the treated animals survived longer than untreated control animals. […] The results of the experiment are summarized in the following table: Antitumour activity of 6-[2-(2-hydroxyethyl)aminoethyl]5,11-dioxo-5,6-dihydro-11H-indeno[1,2-c]isoquinoline (the substance I, X=2) in S37 sarcoma bearing mice.
In an analogous experiment carried out on the animals with implanted Sa37 sarcoma the substance I (X=2) was administered in seven daily doses, and the substance I (X=3) in four days. The results of the experiment are summarized in the following table: Antitumour activity of 6-[2-(2-hydroxyethyl)aminoethyl]5,11-dioxo-5,6-dihydro-11H-indeno[1,2-c]isoquinoline (the substance I, X=2) and 6-[3-(2-hydroxyethyl)aminopropyl]5,11-dioxo-5,6-dihydro-11H-indeno[1,2-c]isoquinoline (the substance I, X=3) in S37 bearing mice.
In an experiment carried out on the animals with implanted Sa37 sarcoma the substance I (X=0) was administered in eight daily doses (analogously as in example 6).

Ehrlich tumour = test: Antitumour activity against solid form of Ehrlich tumour in mice (tumour weight, survival); type: in vivo, mice H
Source text: as §1
Sixty female mice H weighing approximately 20 g were divided into three groups: one control group and two experimental groups of 20 animal each. A lethal dose of the 40 Ehrlich tumour homogenate was implanted subcutaneously to all the animals. The animals of test groups were treated using the compounds suspended in water. […] On the fourteenth day after the tumour transplantation, half of the animals in each group were killed by ether anaesthesia, tumours were removed and weighed. The remaining animals were left to monitor the time of death and survival time was followed. […] It was also observed that the treated animals survived longer than untreated control animals.

leukemia P388 = test: Survival of mice with leukemia P388 after intravenous administration; type: in vivo; details: mice DBA2 with leukemia P388
Source text: as §1, with “(1982)]. […]” for “(1982)].”

Molecule: COc1cccc2c1C(=O)c1c(O)c3c(c(O)c1C2=O)C[C@@](O)(C(=O)CO)C[C@@H]3O[C@H]1C[C@H](N)[C@H](O)[C@H](C)O1 [DOXORUBICIN]
- IC50 (Yoshida ascites cells; Rattus norvegicus, YOSHIDA, Precursor [6-3H]Thymidine): 16 µM
- IC50 (Yoshida ascites cells; Rattus norvegicus, YOSHIDA, Precursor [Uracil-U-14C]uridine): 8 µM

Molecule: O=C1c2ccccc2-c2c1c1ccccc1c(=O)n2NCCO [I (X=0), 6-[(2-hydroxyethyl)amino]-5,11-dioxo-5,6-dihydro-11H-indeno[1,2-c]isoquinoline]
- mean value of the tumour weight in comparison with the untreated control group (Sa37 sarcoma; 20 mg/kg s.c.): 68%
- mean value of tumour cell fraction in ascites fluid (total ascitocrit) in comparison with the untreated control group (Sa37 sarcoma; 20 mg/kg s.c.): 71%
- mean value of the tumour weight in comparison with the untreated control group (Sa37 sarcoma; 50 mg/kg p.o.): 60%
- mean value of tumour cell fraction in ascites fluid (total ascitocrit) in comparison with the untreated control group (Sa37 sarcoma; 50 mg/kg p.o.): 68%
- mean tumour weight lowered by (Ehrlich tumour; 50 mg/kg p.o. x 8, starting on the first day after tumour transplantation): 13%
- Mean survival time in comparison with the untreated control group (Ehrlich tumour; eight daily doses of 25 mg/kg p.o.): 115%
- mean tumour weight in the treated animals in comparison with the untreated control group (Ehrlich tumour; single dose of 100 mg/kg p.o.): 72%

Molecule: Cl.O=C1c2ccccc2-c2c1c1ccccc1c(=O)n2CCNCCO [I (X=2) Hydrochloride, 6-[2-(2-hydroxyethyl)aminoethyl]-5,11-dioxo-5,6-dihydro-11H-indeno[1,2-c]isoquinoline hydrochloride]
- survival (leukemia P388): highly significant increase of survival
- IC50 (Yoshida ascites cells; Rattus norvegicus, YOSHIDA, Precursor [6-3H]Thymidine, read-out: IC 50): 5 µM
- IC50 (Yoshida ascites cells; Rattus norvegicus, YOSHIDA, Precursor [Uracil-U-14C]uridine, read-out: IC 50): 7 µM

Molecule: O=C1c2ccccc2-c2c1c1ccccc1c(=O)n2CCCNCCO [I (X=3), 6-[3-(2-hydroxyethyl)aminopropyl]-5,11-dioxo-5,6-dihydro-11H-indeno[1,2-c]isoquinoline]
- Survival time (T/C, %) (Sa37 sarcoma; 10 mg/kg p.o.): 119%
- Total ascitocrit (T/C, %) (Sa37 sarcoma; 10 mg/kg p.o.): 80^a) %
- Tumour weight (T/C, %) (Sa37 sarcoma; 10 mg/kg p.o.): 70^b) %
- Survival time (T/C, %) (Sa37 sarcoma; 20 mg/kg p.o.): 99%
- Total ascitocrit (T/C, %) (Sa37 sarcoma; 20 mg/kg p.o.): 62^c) %
- Tumour weight (T/C, %) (Sa37 sarcoma; 20 mg/kg p.o.): 56^c) %
- Total ascitocrit (T/C, %) (Sa37 sarcoma; 30 mg/kg p.o.): 43^b) %
- Tumour weight (T/C, %) (Sa37 sarcoma; 30 mg/kg p.o.): 35^b) %
- Survival time (T/C, %) (Sa37 sarcoma; 30 mg/kg p.o., tox - toxic dose): tox

Molecule: MITOXANTRON
- IC50 (Yoshida ascites cells; Precursor [6-3H]Thymidine, read-out: IC 50): 25 µM
- IC50 (Yoshida ascites cells; Precursor [Uracil-U-14C]uridine, read-out: IC 50): 23 µM
